According to patent publication US20250042900A1 (priority 2022, published 2025):
Counter-ions that a name gives are not always drawn.

Columns and labels:
[1] = target: Cholecystokinin Receptor A (CCKAR) (Homo sapiens, UniProt P32238); experiment: Calcium flux secondary messenger assay, antagonist format; type: cell-based; details: read-out: IC50 (μM) Antag./Blocker/Inhibitor
[2] = target: N-methyl-D-aspartate (NMDA) Glutamate Receptor 1A/2B (NMDAR (1A/2B)) (Homo sapiens, UniProt Q05586+Q13224); experiment: Ion channel assay, blocker format; type: cell-based; details: read-out: IC50 (μM) Antag./Blocker/Inhibitor
[3] = target: Cannabinoid Receptor 1 (CNR1) (Homo sapiens, UniProt P21554); experiment: cAMP secondary messenger assay, agonist format; type: cell-based; details: read-out: EC50 (μM) Agonist/Opener
[4] = target: T1, Arginine Vasopressin Receptor 1A (AVPR1A) (Homo sapiens, UniProt P37288); experiment: Calcium flux secondary messenger assay, agonist format; type: cell-based; details: read-out: EC50 (μM) Agonist/Opener
[5] = target: T2, Lymphocyte Cell-Specific Protein-Tyrosine Kinase (Src family) (LCK) (Homo sapiens, UniProt P06239); experiment: Kinase binding assay (KINOMEscan); details: inhibitor, read-out: IC50 (μM) Antag./Blocker/Inhibitor
T2 construct: T7 phage fusion (most assays) or DNA tag for qPCR (the remaining kinases); made in house; host or cells: E. coli (BL21-derived, T7 phage display) or HEK-293

[6] = target: Histamine Receptor H2 (HRH2) (Homo sapiens, UniProt P25021); experiment: cAMP secondary messenger assay, antagonist format; type: cell-based; details: read-out: IC50 (μM) Antag./Blocker/Inhibitor
[7] = target: Adrenergic Receptor α1A (ADRA1A) (Homo sapiens, UniProt P35348); experiment: Calcium flux secondary messenger assay, agonist format; type: cell-based; details: read-out: EC50 (μM) Agonist/Opener
[8] = target: T1, Arginine Vasopressin Receptor 1A (AVPR1A); experiment: Calcium flux secondary messenger assay, antagonist format; type: cell-based; details: read-out: IC50 (μM) Antag./Blocker/Inhibitor
PDE3A = target: T3, PDE3A (Homo sapiens, UniProt Q14432); experiment: Enzymatic assay PDE3A; type: biochemical; details: inhibitor, read-out: IC50 (μM) Antag./Blocker/Inhibitor
T3 construct: purchased Signal Chem

[9] = target: Dopamine Receptor D2 (DRD2S) (Homo sapiens, UniProt P14416); experiment: cAMP secondary messenger assay, agonist format; type: cell-based; details: read-out: EC50 (μM) Agonist/Opener
[10] = target: T4, Muscarinic acetylcholine Receptor M3 (CHRM3) (Homo sapiens, UniProt P20309); experiment: cell-based; details: Calcium Flux, antagonist, read-out: IC50 (μM) Antag./Blocker/Inhibitor
MAOA = target: T5, MAOA (Homo sapiens, UniProt P21397); experiment: Enzymatic assay MAOA; type: biochemical; details: inhibitor, read-out: IC50 (μM) Antag./Blocker/Inhibitor
T5 construct: purchased Sigma

[11] = target: Opioid Receptor Delta 1 (OPRD1) (Homo sapiens, UniProt P41143); experiment: cAMP secondary messenger assay, agonist format; type: cell-based; details: read-out: EC50 (μM) Agonist/Opener
[12] = target: Muscarinic acetylcholine Receptor M1 (CHRM1) (Homo sapiens, UniProt P11229); experiment: cell-based; details: Calcium Flux, antagonist, read-out: IC50 (μM) Antag./Blocker/Inhibitor
[13] = test system: Gamma-aminobutyric acid Receptor A (GABAA); experiment: Ion channel assay, opener format; type: cell-based; details: read-out: EC50 (μM) Agonist/Opener
[14] = target: T6, Insulin Receptor (tyrosine kinase) (INSR) (Homo sapiens, UniProt P06213); experiment: Kinase binding assay (KINOMEscan); details: inhibitor, read-out: IC50 (μM) Antag./Blocker/Inhibitor
T6 construct: T7 phage fusion (most assays) or DNA tag for qPCR (the remaining kinases); made in house; host or cells: E. coli (BL21-derived, T7 phage display) or HEK-293

[15] = target: T7, Rho Associated Coiled-Coil Containing Protein Kinase 1 (ROCK1) (Homo sapiens, UniProt Q13464); experiment: Kinase binding assay (KINOMEscan); details: inhibitor, read-out: IC50 (μM) Antag./Blocker/Inhibitor
T7 construct: T7 phage fusion (most assays) or DNA tag for qPCR (the remaining kinases); made in house; host or cells: E. coli (BL21-derived, T7 phage display) or HEK-293

[16] = target: T4, Muscarinic acetylcholine Receptor M3 (CHRM3); experiment: Calcium flux secondary messenger assay, agonist format; type: cell-based; details: read-out: EC50 (μM) Agonist/Opener
dopamine transporter = dopamine transporter (Homo sapiens, UniProt Q01959); experiment: Monoamine transporter uptake assay (Neurotransmitter Transporter Uptake Assay Kit), blocker format
[17] = target: T8, Muscarinic acetylcholine Receptor M2 (CHRM2) (Homo sapiens, UniProt P08172); experiment: cAMP secondary messenger assay, agonist format; type: cell-based; details: read-out: EC50 (μM) Agonist/Opener
KvLQT1/minK = KvLQT1/minK (Homo sapiens, UniProt P51787); experiment: Ion channel assay, opener format; type: cell-based; details: read-out: EC50 (μM) Agonist/Opener
serotonin transporter = target: T9, serotonin transporter (Homo sapiens, UniProt P31645); experiment: cell-based; details: SERT, blocker, read-out: IC50 (μM) Antag./Blocker/Inhibitor
T9 construct: expressed in transfected cells

[18] = target: Adrenergic Receptor α2A (ADRA2A) (Homo sapiens, UniProt P08913); experiment: cAMP secondary messenger assay, agonist format; type: cell-based; details: read-out: EC50 (μM) Agonist/Opener
[19] = target: T8, Muscarinic acetylcholine Receptor M2 (CHRM2); experiment: cAMP secondary messenger assay, antagonist format; type: cell-based; details: read-out: IC50 (μM) Antag./Blocker/Inhibitor
[20] = target: norepinephrine transporter (Homo sapiens, UniProt P23975); experiment: Monoamine transporter uptake assay (Neurotransmitter Transporter Uptake Assay Kit), blocker format
[21] = target: T10, 5-Hydroxytryptamine (Serotonin) Receptor 3A (5-HT3A) (Homo sapiens, UniProt P46098); experiment: Ion channel assay, opener format; type: cell-based; details: read-out: EC50 (μM) Agonist/Opener
T10 construct: expressed in transfected cells

[22] = target: Histamine Receptor H1 (HRH1) (Homo sapiens, UniProt P35367); experiment: Calcium flux secondary messenger assay, agonist format; type: cell-based; details: read-out: EC50 (μM) Agonist/Opener
[23] = target: Nicotinic acetylcholine Receptor α4 β2 (nAChR(a4/b2)) (Homo sapiens, UniProt P17787+P43681); experiment: Ion channel assay, opener format; type: cell-based; details: read-out: EC50 (μM) Agonist/Opener
[24] = test system: Gamma-aminobutyric acid Receptor A (GABAA); experiment: Ion channel assay, blocker format; type: cell-based; details: read-out: IC50 (μM) Antag./Blocker/Inhibitor
hERG = hERG (Homo sapiens, UniProt Q12809); experiment: Ion channel assay, blocker format; type: cell-based; details: read-out: IC50 (μM) Antag./Blocker/Inhibitor
COX2 = target: T11, COX2 (Homo sapiens, UniProt P35354); experiment: Enzymatic assay COX2; type: biochemical; details: inhibitor, read-out: IC50 (μM) Antag./Blocker/Inhibitor
T11 construct: purchased BPS Bioscience

[25] = target: Opioid Receptor Mu (OPRM1) (Homo sapiens, UniProt P35372); experiment: cell-based; details: cAMP, antagonist, read-out: IC50 (μM) Antag./Blocker/Inhibitor

T1 sequence (P37288 whole entry): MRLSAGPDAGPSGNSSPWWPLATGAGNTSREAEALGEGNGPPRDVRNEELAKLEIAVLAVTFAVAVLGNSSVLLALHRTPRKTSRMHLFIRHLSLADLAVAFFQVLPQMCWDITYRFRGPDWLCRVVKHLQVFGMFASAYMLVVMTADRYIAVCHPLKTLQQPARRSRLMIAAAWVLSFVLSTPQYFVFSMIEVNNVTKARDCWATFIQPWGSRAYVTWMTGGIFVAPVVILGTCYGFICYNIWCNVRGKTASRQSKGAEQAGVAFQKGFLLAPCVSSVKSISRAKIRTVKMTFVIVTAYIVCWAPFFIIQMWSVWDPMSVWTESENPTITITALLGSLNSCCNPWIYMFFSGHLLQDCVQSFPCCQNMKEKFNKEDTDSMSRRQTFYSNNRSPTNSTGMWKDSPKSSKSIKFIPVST
T4 sequence (P20309 whole entry): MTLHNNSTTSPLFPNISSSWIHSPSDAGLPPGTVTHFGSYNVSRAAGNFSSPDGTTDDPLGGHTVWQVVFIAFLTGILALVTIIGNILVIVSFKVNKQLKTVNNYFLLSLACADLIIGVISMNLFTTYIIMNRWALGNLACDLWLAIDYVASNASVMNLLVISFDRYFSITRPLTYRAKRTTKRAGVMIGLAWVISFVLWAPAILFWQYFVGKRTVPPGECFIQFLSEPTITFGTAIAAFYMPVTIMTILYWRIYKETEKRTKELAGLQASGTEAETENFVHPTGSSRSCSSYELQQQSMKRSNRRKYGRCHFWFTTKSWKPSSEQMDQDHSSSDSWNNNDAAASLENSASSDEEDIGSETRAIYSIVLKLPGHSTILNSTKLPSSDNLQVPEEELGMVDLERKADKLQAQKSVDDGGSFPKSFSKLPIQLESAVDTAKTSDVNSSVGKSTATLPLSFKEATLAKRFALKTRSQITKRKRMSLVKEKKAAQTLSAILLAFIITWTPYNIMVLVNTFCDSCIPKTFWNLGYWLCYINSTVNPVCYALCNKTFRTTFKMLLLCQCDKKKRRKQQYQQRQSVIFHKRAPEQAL
T8 sequence (P08172 whole entry): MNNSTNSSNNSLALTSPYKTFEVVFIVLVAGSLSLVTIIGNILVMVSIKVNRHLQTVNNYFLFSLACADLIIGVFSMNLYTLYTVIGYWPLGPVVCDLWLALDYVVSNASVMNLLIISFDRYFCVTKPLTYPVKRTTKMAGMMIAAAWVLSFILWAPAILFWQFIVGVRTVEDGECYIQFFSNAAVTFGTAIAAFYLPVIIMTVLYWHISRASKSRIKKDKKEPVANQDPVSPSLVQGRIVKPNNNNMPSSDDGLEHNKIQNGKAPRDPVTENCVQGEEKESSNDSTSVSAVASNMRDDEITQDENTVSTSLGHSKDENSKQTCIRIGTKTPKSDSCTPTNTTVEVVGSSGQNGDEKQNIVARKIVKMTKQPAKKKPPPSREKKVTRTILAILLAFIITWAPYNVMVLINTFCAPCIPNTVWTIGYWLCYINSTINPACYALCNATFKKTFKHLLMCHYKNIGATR
T5 sequence (P21397 whole entry): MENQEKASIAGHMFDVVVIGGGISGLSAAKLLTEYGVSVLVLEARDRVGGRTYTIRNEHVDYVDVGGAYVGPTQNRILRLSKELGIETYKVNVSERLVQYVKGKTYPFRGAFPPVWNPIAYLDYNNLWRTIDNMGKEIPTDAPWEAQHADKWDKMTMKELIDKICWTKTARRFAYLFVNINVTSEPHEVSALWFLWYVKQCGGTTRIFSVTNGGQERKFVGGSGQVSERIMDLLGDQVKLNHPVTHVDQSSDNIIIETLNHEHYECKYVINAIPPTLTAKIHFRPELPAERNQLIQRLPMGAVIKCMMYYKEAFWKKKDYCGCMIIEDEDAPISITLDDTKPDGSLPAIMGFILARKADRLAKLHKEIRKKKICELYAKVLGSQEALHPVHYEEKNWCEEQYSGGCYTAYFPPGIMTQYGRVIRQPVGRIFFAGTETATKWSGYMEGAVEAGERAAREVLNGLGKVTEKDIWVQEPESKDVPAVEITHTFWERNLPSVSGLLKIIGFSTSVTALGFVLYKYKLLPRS
T10 sequence (P46098 24-478): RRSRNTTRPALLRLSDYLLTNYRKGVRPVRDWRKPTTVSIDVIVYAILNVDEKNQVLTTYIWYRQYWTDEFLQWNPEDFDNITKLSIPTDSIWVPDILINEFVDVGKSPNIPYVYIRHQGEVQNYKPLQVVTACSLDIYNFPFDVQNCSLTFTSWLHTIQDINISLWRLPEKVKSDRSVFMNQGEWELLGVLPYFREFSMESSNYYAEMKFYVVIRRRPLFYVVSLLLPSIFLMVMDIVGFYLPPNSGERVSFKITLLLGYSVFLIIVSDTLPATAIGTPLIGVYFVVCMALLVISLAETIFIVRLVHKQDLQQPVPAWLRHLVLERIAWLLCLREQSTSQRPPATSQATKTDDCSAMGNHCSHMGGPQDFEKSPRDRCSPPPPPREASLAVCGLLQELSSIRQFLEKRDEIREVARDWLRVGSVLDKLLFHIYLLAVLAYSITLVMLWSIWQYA
Sequence of Adrenergic Receptor α2A (ADRA2A) (P08913 whole entry): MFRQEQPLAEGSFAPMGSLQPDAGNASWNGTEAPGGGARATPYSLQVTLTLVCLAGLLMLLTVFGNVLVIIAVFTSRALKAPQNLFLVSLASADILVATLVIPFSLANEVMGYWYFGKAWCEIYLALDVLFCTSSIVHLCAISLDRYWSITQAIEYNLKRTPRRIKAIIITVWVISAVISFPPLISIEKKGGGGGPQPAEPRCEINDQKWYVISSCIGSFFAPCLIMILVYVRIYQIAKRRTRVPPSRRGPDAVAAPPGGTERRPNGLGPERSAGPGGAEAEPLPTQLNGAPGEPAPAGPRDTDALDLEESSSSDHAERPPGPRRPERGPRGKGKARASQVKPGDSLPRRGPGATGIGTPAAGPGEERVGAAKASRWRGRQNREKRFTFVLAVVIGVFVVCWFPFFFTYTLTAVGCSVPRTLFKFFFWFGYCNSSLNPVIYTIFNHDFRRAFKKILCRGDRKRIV
Sequence of N-methyl-D-aspartate (NMDA) Glutamate Receptor 1A/2B (NMDAR (1A/2B)) (Q13224 27-1484, other chains not shown): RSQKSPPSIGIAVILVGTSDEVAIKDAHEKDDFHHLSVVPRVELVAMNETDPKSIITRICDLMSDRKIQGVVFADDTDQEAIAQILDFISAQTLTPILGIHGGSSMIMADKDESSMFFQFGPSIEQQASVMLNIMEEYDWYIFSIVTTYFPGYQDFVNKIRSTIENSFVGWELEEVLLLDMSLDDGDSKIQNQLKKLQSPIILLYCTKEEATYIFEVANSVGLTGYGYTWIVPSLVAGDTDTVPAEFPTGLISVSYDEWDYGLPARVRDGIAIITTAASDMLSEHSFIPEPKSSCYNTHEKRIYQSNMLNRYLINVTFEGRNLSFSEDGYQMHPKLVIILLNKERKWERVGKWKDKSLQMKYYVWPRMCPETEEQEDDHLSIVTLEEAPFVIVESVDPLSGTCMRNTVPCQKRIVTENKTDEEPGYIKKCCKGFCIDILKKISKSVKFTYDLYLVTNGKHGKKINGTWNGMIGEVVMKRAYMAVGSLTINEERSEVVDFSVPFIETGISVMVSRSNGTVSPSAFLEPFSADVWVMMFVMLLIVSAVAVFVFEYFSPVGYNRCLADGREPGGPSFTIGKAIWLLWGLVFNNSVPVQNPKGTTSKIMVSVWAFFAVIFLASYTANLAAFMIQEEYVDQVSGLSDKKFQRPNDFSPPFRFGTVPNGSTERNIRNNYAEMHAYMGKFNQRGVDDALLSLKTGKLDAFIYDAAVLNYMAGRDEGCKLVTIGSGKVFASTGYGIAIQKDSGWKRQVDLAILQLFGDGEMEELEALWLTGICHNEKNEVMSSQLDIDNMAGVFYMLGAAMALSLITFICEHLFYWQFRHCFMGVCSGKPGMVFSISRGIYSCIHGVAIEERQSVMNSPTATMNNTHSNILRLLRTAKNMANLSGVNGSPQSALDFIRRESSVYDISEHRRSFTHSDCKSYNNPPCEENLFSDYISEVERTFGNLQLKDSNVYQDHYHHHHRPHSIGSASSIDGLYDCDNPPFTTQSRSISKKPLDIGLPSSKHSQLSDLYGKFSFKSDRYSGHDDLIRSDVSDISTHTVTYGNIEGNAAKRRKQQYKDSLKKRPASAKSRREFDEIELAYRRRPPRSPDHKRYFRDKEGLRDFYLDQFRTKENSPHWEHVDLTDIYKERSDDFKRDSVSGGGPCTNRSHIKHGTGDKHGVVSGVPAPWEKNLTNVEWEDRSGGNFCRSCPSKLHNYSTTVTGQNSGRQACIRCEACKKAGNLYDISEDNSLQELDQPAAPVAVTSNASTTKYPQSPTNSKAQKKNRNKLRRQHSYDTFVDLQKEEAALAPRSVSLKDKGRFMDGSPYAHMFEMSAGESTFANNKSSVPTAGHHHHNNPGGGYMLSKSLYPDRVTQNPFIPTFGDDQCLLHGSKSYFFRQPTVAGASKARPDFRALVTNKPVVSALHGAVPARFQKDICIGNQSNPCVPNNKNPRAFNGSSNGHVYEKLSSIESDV
Sequence of Dopamine Receptor D2 (DRD2S) (P14416 1-414 isoform P14416-2): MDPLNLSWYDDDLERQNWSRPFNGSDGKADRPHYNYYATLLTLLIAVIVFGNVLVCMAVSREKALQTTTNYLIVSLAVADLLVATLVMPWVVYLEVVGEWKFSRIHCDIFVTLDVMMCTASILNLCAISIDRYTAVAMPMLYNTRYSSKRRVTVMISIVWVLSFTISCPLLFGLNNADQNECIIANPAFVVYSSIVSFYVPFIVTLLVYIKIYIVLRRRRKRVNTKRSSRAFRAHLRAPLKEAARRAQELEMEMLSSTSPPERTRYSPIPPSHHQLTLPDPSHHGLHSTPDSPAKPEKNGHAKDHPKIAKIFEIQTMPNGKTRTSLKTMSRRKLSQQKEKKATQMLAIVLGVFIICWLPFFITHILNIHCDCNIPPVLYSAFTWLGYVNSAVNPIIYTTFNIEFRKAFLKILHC

CN(C)CCc1ccn2ccccc12 [28-12 oxalate, 2-(indolizin-1-yl)-N, N-dimethylethan-1-amine oxalate]
IC50 [1]: > 30 µM
IC50 [2]: > 30 µM
EC50 [3]: > 30 µM
EC50 [4]: > 30 µM
IC50 [5]: > 30 µM
IC50 [6]: > 30 µM
EC50 [7]: > 30 µM
IC50 [8]: > 30 µM
IC50 (PDE3A): > 30 µM
EC50 [9]: > 30 µM
IC50 [10]: > 30 µM
IC50 (MAOA): 7.25 µM
EC50 [11]: > 30 µM
IC50 [12]: > 30 µM
EC50 [13]: > 30 µM
IC50 [14]: > 30 µM
IC50 [15]: > 30 µM
EC50 [16]: > 30 µM
IC50 (dopamine transporter): > 30 µM
EC50 [17]: > 30 µM
EC50 (KvLQT1/minK): > 30 µM
IC50 (serotonin transporter): > 30 µM
EC50 [18]: > 30 µM
IC50 [19]: > 30 µM
IC50 [20]: > 30 µM
EC50 [21]: > 30 µM
EC50 [22]: > 30 µM
EC50 [23]: > 30 µM
IC50 [24]: > 30 µM
IC50 (hERG): > 30 µM
IC50 (COX2): > 30 µM
IC50 [25]: > 30 µM
